These results are taken from US8518677B2, “Microbial bioreaction process” (Evolva Sa, priority 2007, dated 2013).

Series [1] concerns S. cerevisiae strain FS09229. In words: Growth of non-evolved strain FS09229 in the presence of extraction solvent (CO2 production). The conditions noted are these: 100 ml solvent from start, 800 rpm. It is filed as cell-based. The protocol:
The non-evolved FS09229 strain described in previous examples was grown in the presence of nonyl-acetate. A 1 ml aliquot of a glycerol stock that was made from an exponentional growing FS09229 strain was used to inoculate a fermentor, containing a similar medium as described in the previous example, but now containing 100 g/l glucose and 100 ml of nonyl-acetate from the beginning of the fermentation. The stirrer speed was instantly set at 800 rpm. Upon inoculation of the fermentor, a long lag-phase of approximately 70 hrs set-in, during which an apparent adaptation to the solvent took place. Consumption of glucose only then commenced, indicated by a slow increase in CO2 signal, a decrease in dissolved oxygen and addition of base. Indeed the cells continued to grow exponentially with concomitant production of CO2, and consumed the glucose within less than 25 hours. […] The final biomass concentration was 15.5 g/l. The cultivation will be referred to as FS09229-solvent. As a control-experiment said strain was grown in the similar medium without the addition of nonyl-acetate. Upon inoculation of the fermentor, consumption of glucose commenced already after approximately 10 hours, indicated by an increase in CO2 signal, a decrease in dissolved oxygen and addition of base. […]

For series [2] the following is noted: partition coefficient between water and octanol; cited from earlier work.
Series [3] has as its system S. cerevisiae strain PALCPR. Put plainly: Growth of evolved PALCPR strains in the presence of extraction solvent (CO2 production). It is filed as cell-based. To be noted: PALCPR-evolved-III from glycerol stock; 100 ml solvent from start, 800 rpm. The protocol:
The cells of the PALCPR-solvent culture described in the previous example were taken as starting point because the presence of the solvent mixture would possibly have already evoked adaptation of cells to solvents. For that, cells of the culture described in the previous example were harvested during mid-exponential-phase and stored at −80° C. in 15% glycerol and subsequently a fermentor, containing the same medium as described in the previous example with 10 g/l glucose and 100 g/l galactose, was then inoculated with cells of said PALCPR-solvent culture. The cells were allowed to fully consume the glucose at a stirring speed of 1000 rpm with an average dissolved oxygen content of above 70% of saturated air. At the onset of galactose consumption, the stirring rate was turned down to 300 rpm, after which slowly 100 ml of octylacetate was added.
Galactose consumption indeed commenced again. A small arrest in CO2 production again occurred after 20 hours which, however, recovered after 5 hours, after which the cells grew exponentially with concomitant production of CO2, consumption of galactose within less than 40 hours. Based upon the CO2 production the specific growth rate was estimated to be 0.062 1/h (FIG. 2). The final biomass concentration was 21.6 g/l.
In order to further improve said strain in terms of length of lag-phase and growth rate, a 25 ml aliquot of the exponentional growing PALCPR-evolved-I strain was used to inoculate a fermentor, containing a similar medium as described in the previous example. However, the medium now only contained 100 g/l galactose and did contain 100 ml of octylacetate from the beginning of the fermentation. In addition, the stirrer speed was instantly set at 800 rpm. Upon inoculation of the fermentor, consumption of galactose only commenced after approximately 40 hours, indicated by a slow increase in CO2 signal, a decrease in dissolved oxygen and addition of base. Indeed the cells continued to grow exponentially with concomitant production of CO2, and consumed the galactose within less than 90 hours. Based upon the CO2 production the specific growth rate was estimated to be 0.041 1/h (FIG. 3). The final biomass concentration was 21.5 g/l. The strain is referred to as PALCPR-evolved-II.
Therefore, to further improve said strain in terms of both length of lag-phase and growth rate, a 50 ml aliquot of the exponentional growing PALCPR-evolved-II strain was used to inoculate a fermentor, containing a similar medium as described in the previous example (thus containing 100 g/l galactose 100 ml of octylacetate from the beginning of the fermentation). The stirrer speed was instantly set at 800 rpm. Upon inoculation of the fermentor, consumption of galactose already commenced after less then 20 hours, indicated by a slow increase in CO2 signal, a decrease in dissolved oxygen and addition of base. Indeed the cells further grew exponentially with concomitant production of CO2, and now consumed the galactose within approximately 50 hours. Based upon the CO2 production the specific growth rate was estimated to be 0.091 1/h (FIG. 4). The final biomass concentration was 18.9 g/l. The strain is referred to as PALCPR-evolved-III.
The evolved PALCPR-evolved-III strain described in the previous example was grown in the presence of nonyl-acetate, a similar solvent as octylacetate with one additional carbon atom. A 1 ml aliquot of a glycerol stock that was made from an exponentional growing PALCPR-evolved-III strain was used to inoculate a fermentor, containing a similar medium as described in the previous example, containing only 100 g/l galactose and 100 ml of nonyl-acetate from the beginning of the fermentation. The stirrer speed was instantly set at 800 rpm. Upon inoculation of the fermentor, consumption of galactose only commenced after approximately 70 hours, indicated by a slow increase in CO2 signal, a decrease in dissolved oxygen and addition of base. […]

For `CCCCCCCCCOC(C)=O` [nonyl-acetate], in series [1], the lag-phase result is on record as “approximately 70 hrs”. Also, the specific growth rate in series [1] (100 g/l glucose) was determined as 0.176 h⁻¹. The logP in series [2] is recorded as 4.2. Also, in series [3], the “lag-phase until galactose consumption commenced” value was “approximately 70 hours” and the specific growth rate turned out to be 0.098 h⁻¹.

In general, logP refers to a log measure of how a compound divides between an organic and an aqueous phase.
